We go through 21 molecules from ChEMBL document CHEMBL4417631, “Oral peptide inhibitors of interleukin-23 receptor and their use to treat inflammatory bowel diseases” (2017).

Each structure is given as a SMILES string. Where a SMILES comes first, the peptide text is derived from it. [ ]: non-standard residue; d: D form. hLeu = CC(C)CC[C@H](N)C(=O)O

For this assay, the target named is T1, Interleukin-23 receptor (Homo sapiens, UniProt Q5VWK5).
T1 sequence (Q5VWK5 whole entry): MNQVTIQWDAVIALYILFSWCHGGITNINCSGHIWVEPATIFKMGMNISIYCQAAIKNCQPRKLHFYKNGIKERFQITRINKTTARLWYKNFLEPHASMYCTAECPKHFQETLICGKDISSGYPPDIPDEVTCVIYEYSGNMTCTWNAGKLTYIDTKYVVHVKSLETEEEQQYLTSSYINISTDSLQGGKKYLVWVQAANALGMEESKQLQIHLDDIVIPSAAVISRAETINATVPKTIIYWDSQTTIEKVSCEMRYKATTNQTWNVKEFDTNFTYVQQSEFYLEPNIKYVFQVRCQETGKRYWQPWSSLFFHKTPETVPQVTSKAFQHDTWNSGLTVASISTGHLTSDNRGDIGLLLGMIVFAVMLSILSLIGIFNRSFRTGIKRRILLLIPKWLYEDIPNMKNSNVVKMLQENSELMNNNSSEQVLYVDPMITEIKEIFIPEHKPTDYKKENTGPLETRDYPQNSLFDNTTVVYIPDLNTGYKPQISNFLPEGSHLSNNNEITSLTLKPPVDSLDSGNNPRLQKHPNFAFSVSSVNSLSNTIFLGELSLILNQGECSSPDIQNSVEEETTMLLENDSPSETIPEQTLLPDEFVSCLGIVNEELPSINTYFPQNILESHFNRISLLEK
Kind of assay: Inhibition of interleukin-23 binding to human interleukin-23 receptor incubated for 2 hrs by competitive binding ELISA.

For orientation: IC50 means the concentration needed to halve the response being measured. Read a high IC50 as lower potency. Molecule `CC(=O)N[C@@H](CS)C(=O)N[C@@H](C)C(=O)N[C@@H](CC(=O)O)C(=O)N[C@@H](Cc1c[nH]c2ccccc12)C(=O)N[C@H](C(=O)N[C@@H](CS)C(=O)N[C@@H](Cc1ccc(O)cc1)C(=O)N[C@@H](Cc1ccc(C(N)=O)cc1)C(=O)N[C@@H](CCCN)C(=O)N[C@@H](CN)C(=O)N[C@@H](Cc1ccccc1)C(=O)NCC(=O)NCCOCC(=O)N[C@H](CCCCN)C(N)=O)C(C)C` showed an IC50 of 6000 nM.
The figure for `CC(=O)N[C@@H](CS)C(=O)N[C@@H](CCCNC(=N)N)C(=O)N[C@H](C(=O)N[C@@H](Cc1c[nH]c2ccccc12)C(=O)N[C@@H](CCC(N)=O)C(=O)N[C@@H](CS)C(N)=O)[C@@H](C)O` (Ac-CRTWQC-NH2) is over 30000 nM; for `CC(=O)N[C@@H](CS)C(=O)N[C@H](C(=O)N[C@H](C(=O)N[C@@H](Cc1c[nH]c2ccccc12)C(=O)N[C@@H](CCC(=O)O)C(=O)N[C@@H](CS)C(=O)N[C@@H](Cc1ccc(O)cc1)C(=O)N[C@@H](Cc1c[nH]c2ccccc12)C(=O)N[C@@H](Cc1cnc[nH]1)C(=O)N[C@@H](CCC(=O)O)C(=O)N[C@@H](Cc1ccccc1)C(=O)NCC(N)=O)[C@@H](C)O)[C@@H](C)O` (Ac-CTTWECYWHEFG-NH2) it is under 500 nM.
The figure for `CSCC[C@H](NC(=O)[C@@H](N)CS)C(=O)N[C@H](C(=O)N[C@@H](Cc1c[nH]c2ccccc12)C(=O)N[C@@H](CCC(N)=O)C(=O)N[C@@H](CS)C(=O)N[C@@H](Cc1ccc(O)cc1)C(=O)N[C@@H](Cc1c[nH]c2ccccc12)C(=O)N[C@@H](CC(C)C)C(=O)N[C@@H](Cc1ccc(O)cc1)C(=O)NCC(=O)N[C@@H](CCCNC(=N)N)C(=O)NCCOCC(=O)N[C@H](CCCCN)C(N)=O)[C@@H](C)O` is over 30000 nM; for `COc1ccc([C@@H]2NC(=O)[C@H]([C@@H](C)O)NC(=O)[C@H](CCC(N)=O)NC(=O)[C@@H](NC(C)=O)CCSC[C@@H](C(=O)N[C@@H](Cc3ccc(OCCN)cc3)C(=O)N[C@@H](Cc3ccc4ccccc4c3)C(=O)N[C@@](C)(CCCCN)C(=O)N[C@@H](CCC(=O)O)C(=O)N[C@@H](CC(N)=O)C(=O)NCC(N)=O)NC(=O)[C@H](CCC(N)=O)NC2=O)cc1` it is over 3000 nM; for `CC(C)[C@H](NC(=O)[C@H](Cc1ccc(-c2ccccc2)cc1)NC(=O)[C@H](CC(=O)O)NC(=O)[C@H](C)NC(=O)[C@@H](N)CS)C(=O)N[C@@H](CS)C(=O)N[C@@H](Cc1ccc(O)cc1)C(=O)N[C@@H](Cc1c[nH]c2ccccc12)C(=O)N[C@@H](Cc1cnc[nH]1)C(=O)N[C@H](C(=O)N[C@@H](Cc1ccccc1)C(=O)NCC(N)=O)[C@@H](C)O` it is over 1000 nM.
The figure for `CC(C)[C@H](NC(=O)[C@@H]1Cc2ccccc2CN1C(=O)[C@H](CC(=O)O)NC(=O)[C@H](C)NC(=O)[C@@H](N)CS)C(=O)N[C@@H](CS)C(=O)N[C@@H](Cc1ccc(O)cc1)C(=O)N[C@@H](Cc1c[nH]c2ccccc12)C(=O)N[C@@H](Cc1cnc[nH]1)C(=O)N[C@H](C(=O)N[C@@H](Cc1ccccc1)C(=O)NCC(N)=O)[C@@H](C)O` is over 1000 nM; for `CC(=O)N[C@@H](CS)C(=O)N[C@@H](CCC(N)=O)C(=O)N1CCC[C@H]1C(=O)N[C@@H](Cc1c[nH]c2ccccc12)C(=O)N[C@@H](CCC(N)=O)C(=O)N[C@@H](CS)C(=O)N[C@@H](Cc1ccc(O)cc1)C(=O)N[C@@H](Cc1c[nH]c2ccccc12)C(=O)N[C@@H](CCC(C)C)C(=O)N[C@@H](CCC(=O)O)C(=O)N[C@@H](CC(N)=O)C(=O)NCC(N)=O` (Ac-CQPWQCYW[hLeu]ENG-NH2) it is over 10000 nM.
Regarding `CC(C)[C@H](NC(=O)[C@H](Cc1c[nH]c2ccccc12)NC(=O)[C@H](CC(=O)O)NC(=O)[C@H](C)NC(=O)[C@@H](N)CS)C(=O)N[C@@H](CS)C(=O)N[C@@H](Cc1ccc(O)cc1)C(=O)N[C@@H](Cc1cccc2ccccc12)C(=O)N(C)[C@@H](Cc1cnc[nH]1)C(=O)N[C@H](C(=O)N[C@@H](Cc1ccccc1)C(=O)O)[C@@H](C)O`, the IC50 was over 1000 nM.
The figure for `CC(=O)N[C@@H](CS)C(=O)N[C@@H](CCCNC(=N)N)C(=O)N[C@H](C(=O)N[C@@H](Cc1c[nH]c2ccccc12)C(=O)N[C@@H](CCC(N)=O)C(=O)N[C@@H](CS)C(=O)N[C@@H](Cc1ccc(O)cc1)C(=O)N[C@@H](Cc1c[nH]c2ccccc12)C(=O)N[C@@H](Cc1cnc[nH]1)C(=O)N[C@@H](CCC(=O)O)C(=O)N[C@@H](Cc1ccc(O)cc1)C(=O)NCC(N)=O)[C@@H](C)O` (Ac-CRTWQCYWHEYG-NH2) is under 500 nM; for `CC(=O)N[C@H](C(=O)N[C@@H](C)C(=O)N[C@@H](CC(=O)O)C(=O)N[C@@H](Cc1c[nH]c2ccccc12)C(=O)N[C@H](C(=O)N[C@@H](CS)C(=O)N[C@@H](Cc1ccc(O)cc1)C(=O)N[C@@H](Cc1c[nH]c2ccccc12)C(=O)N[C@@H](Cc1cnc[nH]1)C(=O)N[C@H](C(=O)N[C@@H](Cc1ccccc1)C(=O)NCC(N)=O)[C@@H](C)O)C(C)C)C(C)(C)S` it is 1000 to 10000 nM.
`CC(=O)N[C@@H](CS)C(=O)N[C@@H](CCC(N)=O)C(=O)N[C@H](C(=O)N[C@@H](Cc1c[nH]c2ccccc12)C(=O)N[C@@H](CCC(N)=O)C(=O)N[C@@H](CS)C(=O)N[C@H](Cc1ccc(O)cc1)C(=O)N[C@@H](Cc1c[nH]c2ccccc12)C(=O)N[C@@H](CCC(C)C)C(=O)N[C@@H](CCC(=O)O)C(=O)N[C@@H](CC(N)=O)C(=O)NCC(N)=O)[C@@H](C)O`: the IC50 is over 30000 nM.
The figure for `COc1ccc(C[C@H](NC(=O)[C@@H](NC(=O)[C@H](CCC(N)=O)NC(=O)[C@H](Cc2c[nH]c3ccccc23)NC(=O)[C@@H](NC(=O)[C@H](CCC(N)=O)NC(=O)[C@@H](NC(=O)c2cc(O)c(O)c(O)c2)C(C)(C)S)[C@@H](C)O)C(C)(C)S)C(=O)N[C@@H](Cc2ccc3ccccc3c2)C(=O)N[C@@](C)(CCCCN)C(=O)N[C@@H](CCCCNC(C)=O)C(=O)N[C@@H](CC(N)=O)C(=O)NCC(N)=O)cc1` is 1000 to 10000 nM; for `CC[C@H](C)[C@H](NC(=O)[C@H](Cc1cnc[nH]1)NC(=O)[C@H](Cc1c[nH]c2ccccc12)NC(=O)[C@H](Cc1ccc(O)cc1)NC(=O)[C@H](CS)NC(=O)[C@H](CCC(=O)O)NC(=O)[C@H](Cc1c[nH]c2ccccc12)NC(=O)[C@H](CC(=O)O)NC(=O)[C@H](CO)NC(=O)[C@@H](N)CS)C(=O)N[C@@H](Cc1ccccc1)C(=O)NCC(N)=O` (H-CSDWECYWHIFG-NH2) it is over 1000 nM.
The figure for `CC(=O)N[C@@H](CS)C(=O)N[C@@H](C)C(=O)N[C@@H](CC(=O)O)C(=O)N[C@@H](Cc1c[nH]c2ccccc12)C(=O)N[C@H](C(=O)N[C@@H](CS)C(N)=O)C(C)C` (Ac-CADWVC-NH2) is over 1000 nM; for `CC(=O)N[C@H](CCCCN)C(=O)N[C@@H](CO)C(=O)N[C@@H](CS)C(=O)N[C@@H](C)C(=O)N[C@@H](CC(=O)O)C(=O)N[C@@H](Cc1c[nH]c2ccccc12)C(=O)N[C@H](C(=O)N[C@@H](CS)C(=O)N[C@@H](Cc1ccc(O)cc1)C(=O)N[C@@H](Cc1c[nH]c2ccccc12)C(=O)N[C@@H](Cc1cnc[nH]1)C(=O)N[C@H](C(=O)N[C@@H](Cc1ccccc1)C(=O)NCC(=O)O)[C@@H](C)O)C(C)C` it is over 1000 nM.
In turn, `CC(=O)N[C@@H](CS)C(=O)N[C@@H](CCC(N)=O)C(=O)N[C@H](C(=O)N[C@@H](Cc1c[nH]c2ccccc12)C(=O)N[C@@H](CCC(N)=O)C(=O)N[C@@H](CS)C(=O)N[C@@H](Cc1ccc(O)cc1)C(=O)N[C@@](C)(Cc1ccccc1)C(=O)N[C@@H](CCC(C)C)C(=O)N[C@@H](CCC(=O)O)C(=O)N[C@@H](CC(N)=O)C(=O)NCC(N)=O)[C@@H](C)O` displayed a concentration for half-maximal inhibition (IC50) of 30000 nM.
`C[C@@H](O)[C@H](NC(=O)[C@H](CCC(=O)O)NC(=O)[C@@H](N)CS)C(=O)N[C@@H](Cc1c[nH]c2ccccc12)C(=O)N[C@@H](CCC(=O)O)C(=O)N[C@@H](CS)C(=O)N[C@@H](Cc1ccc(O)cc1)C(=O)N[C@@H](Cc1c[nH]c2ccccc12)C(=O)N[C@@H](Cc1cnc[nH]1)C(=O)N[C@@H](CO)C(=O)N[C@@H](Cc1ccccc1)C(=O)N[C@@H](CO)C(N)=O` (H-CETWECYWHSFS-NH2) registered an IC50 of over 1000 nM.
`CC(=O)N[C@@H](CS)C(=O)N[C@@H](CCC(N)=O)C(=O)N[C@H](C(=O)N[C@@H](Cc1c[nH]c2ccccc12)C(=O)N[C@@H](CCC(N)=O)C(=O)N[C@@H](CS)C(=O)N[C@@H](Cc1ccc(O)cc1)C(=O)N[C@@H](Cc1c[nH]c2ccccc12)C(=O)N[C@@H](CCCNC(=N)N)C(=O)N[C@@H](CCCCN)C(=O)N[C@@H](CC(N)=O)C(=O)NCC(=O)NCCOCC(=O)N[C@H](CCCCN)C(N)=O)[C@@H](C)O` showed an IC50 of under 500 nM.
The figure for `CC(=O)N[C@@H](CS)C(=O)N[C@@H](C)C(=O)N[C@@H](CC(=O)O)C(=O)N[C@@H](Cc1c[nH]c2ccccc12)C(=O)N[C@H](C(=O)N[C@@H](CS)C(=O)N[C@@H](Cc1ccc(O)cc1)C(=O)N[C@@H](Cc1c[nH]c2ccccc12)C(=O)N[C@@H](Cc1cnc[nH]1)C(=O)N[C@H](C(=O)N[C@@H](Cc1ccccc1)C(=O)NCC(=O)O)[C@@H](C)O)C(C)C` is under 500 nM.
For `CC(=O)N[C@@H](CS)C(=O)N[C@@H](C)C(=O)N[C@@H](CC(=O)O)C(=O)N[C@@H](Cc1c[nH]c2ccccc12)C(=O)N[C@H](C(=O)N[C@@H](CS)C(=O)N[C@@H](Cc1ccc(O)cc1)C(=O)N[C@@H](Cc1c[nH]c2ccccc12)C(=O)N[C@@H](Cc1cnc[nH]1)C(=O)N[C@@H](CCCNC(=N)N)C(=O)N[C@@H](Cc1cnc[nH]1)C(=O)N[C@@H](C)C(=O)N[C@@H](CC(=O)O)C(=O)N[C@@H](CCCNC(=N)N)C(=O)N[C@H](C(=O)N[C@@H](CCCCN)C(N)=O)C(C)C)C(C)C` (Ac-CADWVCYWHRHADRVK-NH2), the IC50 was under 500 nM.
